Assay results from patent US5563142A, “Diaromatic substituted compounds as anti-HIV-1 agents” (The Upjohn Company, priority 1994, dated 1996).
Counter-ions that a name gives are not always drawn. Like-named read-outs stand apart in the source and are kept apart here.

What was measured:
[1] = test system: HIV in primary human peripheral blood lymphocytes; assay: Primary PBL assay: inhibition of viral replication (p24 & RNA); assay type: cell-based; conditions: primary human lymphocytes infected with HIV, days three and four, read-out: PBL INHIBITION OF VIRAL REPLICATION (p24 & RNA) ED50
Experimental: ^3 The utility of the compounds of the invention is further
infection in primary peripheral blood lymphocytes (primary PBL assay). Th
primary PBL assay offers the following advantages:
(a) The assays are performed with primary human lymphocytes. Thereby,
undesired testing of transformed cell lines is avoided in which host cell
and virus may have undergone processes of mutual adaptation. Performance
of cell culture in serum containing media closely mimics the in vivo
situation. (b) The primary PBL assay distinguishes between true antiviral
effect which is due to the drug and cytostatic/cytotoxic reactions. (c)
Viral replication is precisely followed by kinetic measurement of viral
nucleic acids and proteins. (d) Nucleic acids (total HIVRNA intra and
extracellular) and protein (secreted p24) are measured in parallel which
permits one to differentiate between the compound's effect on virus
replication and on the expression of viral proteins. This leads to
additional information regarding the efficacy of the test compound. (e)
Tolerance of the cell culture against low amounts of organic solvents als
permits the investigation of hydrophobic substances. (f) The dose of the
drug causing half maximal suppression of virus replication is determined.
(g) The screening system is standardized and automated to a high degree.
The primary PBL assay uses the following procedure:
Effects of the compounds of the invention on cell proliferation are determined by lymphocyte proliferation assays. Starting with a 100 micromolar solution, the compound is serially diluted 10 fold. One tenth of the concentration of a compound causing half maximal inhibition of cellular proliferation is employed for all subsequent testing.
Peripheral human lymphocytes are isolated by density gradient centrifugation. After stimulation by mitogen the cells are infected with a standardized preparation of HIV. Subsequently, the infected cells are cultured in the presence of the drug for four days. Individual cultures are established to measure viral replication three and four days following infection. Untreated cells and AZT-treated cells are included as controls in parallel with the drugs under investigation.
The amount of viral core protein p24 synthesized and release by the infected cells is determined in the supernatant by the capture-ELISA technique on days three and four. By comparing with a standard preparation, the amount of protein produced by the virus infected cells is quantified.
The total amount of viral RNA synthesized by the infected lymphocytes is determined by a special nucleic acid hybridization on days three and four of culture. By including a standard preparation of HIV-RNA the amount of synthesized RNA is quantified.
In addition, viability of HIV-infected cells is determined in parallel with assays for viral p24 and RNA. In order to evaluate the half maximal antiviral effect of the drug, a concentration dependency of the drug action is measured.
Numerous examples of the compounds of the invention are assayed according to this procedure. The anti-HIV activity, as measured by the inhibition of the release of core p24 protein in HIV infected human lymphocytes, is used to calculate ED50 -antiviral (the concentration required to give a 50% reduction in p24 synthesis).

[2] = molecular target: T1, viral reverse transcriptase (Human immunodeficiency virus type 1 group M subtype B, UniProt P04585); assay: Viral reverse transcriptase inhibition, cell free assay; assay type: biochemical, human immunodeficiency virus (HIV-1); conditions: poly rC or poly rG template; for inhibition at 100 µM: read-out: RT % INHIBITION (100 μM), 100 μM
T1 construct: Viral reverse transcriptase is found in extracts from bacterial clones; made in house; host or cells: Escherichia coli (extracts of bacterial clones, by the procedure of Larder et al., EMBO J. 6:3133-3137, 1987)
Excerpt: The utility of the diaromatic substituted piperazines (III), the anti-AIDS piperazines (IV) and the indoles (V) of this invention can be determined by their ability to inhibit viral reverse transcriptase, an enzyme essential for human immunodeficiency virus replication. This enzyme has characteristics which differentiate it from other known cellular polymerases and it is a unique enzyme which is not found in uninfected cells. Viral reverse transcriptase is found in extracts from bacterial clones prepared according to the procedure described in AIDS Virus Reverse Transcriptase defined by high level expression in Escherichia coli, EMBO J. 6:3133-3137 (1987). Inhibition of this enzyme is determined in a cell free assay which measures the level of radioactive precursors incorporated into DNA. Extracts prepared according to the procedure of Science, 1125-1129 (1981) are incubated in a mixture of inhibitor, 20 mM dithiothreitol, 60 mM sodium chloride, 0.05% NP-40, 10 mM magnesium chloride, 50 mM Tris pH 8.3, 10 μM [^35 S]-labeled deoxynuleoside-5'-triphosphate, 10 μg/ml RNA template (poly rC or poly rG) and 5 μg/ml DNA primer (oligo dG or oligo dT) for 30 minutes at 37° C. Incorporation of radio-labeled percursor is determined by spotting aliquots of the reaction mixture on DE81 paper, washing the papers to remove unincorporated percursor, drying and determining counts. The results (IC50 means the concentration, in μM of drug, required to inhibit the reverse transcriptase activity to the extent of 50%) of various assay(s) are combined and reported as % inhibition and IC50 (calculated).
^1 Viral reverse transcriptase is found in extracts from bacterial
clones prepared according to the procedure described by Larder, B.,
Purifoy D., Powell, K. and Darby, G., AIDS virus reverse transcriptase
defined by high level expression in Escherichia coli., EMBO J. 6,
3133-3137 (1987). Inhibition of this enzyme is determined in a cell free
assay which measures the level of radioactive precursors incorporated int
DNA. Extracts prepared according to the procedure of Kleid, D. G., et
al., Science, 1125-1129 (1981) are incubated in a mixture of inhibitor, 2
mM dithiothreitol, 60 mM sodium chloride, 0.05% NP40, 10 mM magnesium
chloride, 50 mM Tris pH 8.3, 10 μM [^35 Slabeled
deoxynucleoside5triphosphate, 10 μg/ml RNA template (poly rC or poly
rG) and 5 μg/ml DNA primer (oligo dG or oligo dT) for 15 minutes at
37°. Incorporation of radio labeled precursor is determined by
harvesting the trichloroacetic acid precipitated reaction mixtures on
glass fiber filters, drying, and determining counts. The results of
various assays are combined and reported as % inhibition at a 100 μM

[3] = Human immunodeficiency virus 1, Lymphocyte

SMILES | EC50 [1] [nM] | inhibition at 100 µM [2] [%] | EC50 [1, 3] [nM] | RT % INHIBITION (100 μM) ([2]; 100 μM)
CCNc1cccnc1N1CCN(C(=O)c2cc3cc(OC)ccc3[nH]2)CC1 [Example 16, 1-[5-Methoxyindolyl-2-carbonyl]-4-[3-(ethylamino)-2-pyridinyl]piperazine] | 3 | 85 to 88 |  | 
O=C(c1cc2cc(F)ccc2[nH]1)N1CCN(c2ncccc2NCC(F)(F)F)CC1 [Example 34, 1-[5-Fluoroindolyl-2-carbonyl]-4-[3-(2,2,2-trifluoroethylamino)-2-pyridinyl]piperazine] |  | 41 | < 10000 | 
CC(C)Nc1cccnc1N1CCN(C(=O)c2cc3cc(OCc4ccccc4)ccc3[nH]2)CC1 [Example 36, 1-[5-Benzyloxyindolyl-2-carbonyl]-4-[3-(1-methylethyl)amino-2-pyridinyl]piperazine] |  | 69 to 84 | 10 | 
CC(C)Nc1cccnc1N1CCN(C(=O)c2cc3cc(O)ccc3[nH]2)CC1 [Example 38, 1-[5-Hydroxyindolyl-2-carbonyl]-4-[3-(1-methylethylamino)-2-pyridinyl]piperazine] |  | 96 to 98 | < 1 | 
CC(C)Nc1nccnc1N1CCN(C(=O)c2cc3cc(F)ccc3[nH]2)CC1 [Example 47, 1-(5-Fluoroindolyl-2-carbonyl)-4-[3-(1-methylethylamino)-2-pyrazinyl]piperazine] |  | 91 | 1 to 10 | 
CC(C)Nc1cncnc1N1CCN(C(=O)c2cc3cc(F)ccc3[nH]2)CC1 [Example 48, 1-(5-Fluoroindolyl-2-carbonyl)-4-[5-(1-methylethylamino)-4-pyrimidinyl]piperazine] |  | 63 to 92 | 10 to 100 | 
CC(C)Nc1ccnnc1N1CCN(C(=O)c2cc3ccccc3[nH]2)CC1 [Example 49, 1-(Indolyl-2-carbonyl)-4-[4-(1-methylethylamino)-3-pyridazinyl]piperazine, methane sulfonate] |  | 84 to 94 | ≤ 100 | 
CC(C)Nc1ccnnc1N1CCN(C(=O)c2cc3cc(F)ccc3[nH]2)CC1 [Example 50, 1-(5-Fluoroindolyl-2-carbonyl)-4-[4-(1-methylethyl)amino)-3-pyridazinyl]piperazine, methane sulfonate] |  | 84 to 97 | 100 | 
CC(C)Nc1cccnc1N(C)CCN(C)C(=O)c1cc2ccccc2[nH]1 [Example 52, N,N'-Dimethyl-N-(indolyl-2-carbonyl)-N'-(3-(1-methylethylamino)pyrid-2-yl)ethylenediamine] |  | 89 to 94 | 100 to 1000 | 
CC(C)Nc1cccnc1N(C)CCCN(C)C(=O)c1cc2ccccc2[nH]1 [Example 53, N,N'-Dimethyl-N-(indolyl-2-carbonyl)-N'-[3-(1-methylethyl-amino)-2-pyridyl]-1,3-propanediamine] |  | 82 to 94 | 1 to 10 | 
CC(C)Nc1cccnc1N(C)CCCCCCN(C)C(=O)c1cc2ccccc2[nH]1 [Example 54, N,N'-Dimethyl-N-(indolyl-2-carbonyl)-N'-[3-(1-methylethyl-amino)-2-pyridinyl]-1,6-hexanediamine] |  | 70 to 80 | 100 | 
CC(C)Nc1cccnc1N(C)CCOC(=O)c1cc2ccccc2[nH]1 [Example 55] |  | 66 to 79 | 100 to 1000 | 
O=C(c1cc2ccccc2[nH]1)N1CCN(c2ncccc2NC2CCCC2)CC1 [Example 56, 1-(Indolyl-2-carbonyl)-4-(3-cyclopentylamino-2-pyridinyl)piperazine] |  | 79 to 93 | 100 to 1000 | 
CC(C)Nc1cccnc1OCCN(C)C(=O)c1cc2ccccc2[nH]1 [Example 58, 2-(2-(N-Methyl-N-(indolyl-2-carbonyl)amino)ethoxy)-3-(1-methylethylamino)pyridine] |  | 94 to 98 | < 100 | 
CCOC(=O)COc1ccc2[nH]c(C(=O)N3CCN(c4ncccc4NC(C)C)CC3)cc2c1 [Example 60, 1-[5-(Ethoxycarbonylmethoxy)indolyl-2-carbonyl]-4-[3-(1-methylethylamino)-2-pyridinyl]piperazine] |  | 89 to 92 | 100 to 1000 | 
CC(C)Nc1cccnc1N1CCN(C(=O)c2cc3cc(OCC(=O)O)ccc3[nH]2)CC1 [Example 61, sodium salt] |  | 91 | 1000 | 
CC(C)Nc1cccnc1N1CCN(C(=O)c2nc3ccccc3[nH]2)CC1 [Example 62] | 1000 to 10000 |  |  | 64-78%
CNc1cccnc1N1CCN(C(=O)c2cc3cc(F)ccc3[nH]2)CC1 [Example 63, 1-(5-Fluoroindolyl-2-carbonyl)-4-[3-methylamino-2-pyridinyl]piperazine] |  | 82 to 88 | 1000 | 
CNc1cccnc1N1CCN(C(=O)c2cc3cc(OC)ccc3[nH]2)CC1 [Example 64, 1-(5-Methoxyindolyl-2-carbonyl)-4-[3-(methylamino)-2-pyridinyl]piperazine] |  | 88 to 94 | ≤ 1000 | 
CNc1cccnc1N1CCN(C(=O)c2cc3ccccc3[nH]2)CC1 [Example 65, 1-(Indolyl-2-carbonyl)-4-[3-(methylamino)-2-pyridinyl]piperazine] |  | 81 to 93 | ≤ 1 | 
CC(C)Nc1cccnc1N1CCN(C(=O)c2ccc[nH]2)CC1 [Example 69, 1-[Pyrrolyl-2-carbonyl]-4-[3-(1-methylethylamino)-2-pyridinyl]piperazine] |  | 95 | 100 | 
CCNc1cccnc1N1CCN(C(=O)c2cc3ccc(OC)c(C)c3[nH]2)CC1 [Example 71, 1-[6-Methoxy-7-methylindolyl-2-carbonyl]-4-(3-ethylamino-2-pyridinyl)piperazine] |  | 88 to 95 | 10 to 100 | 
COc1cc2cc(C(=O)N3CCN(c4ncccc4NC(C)C)CC3)[nH]c2cc1OC [Example 72, 1-[5,6-Dimethoxyindolyl-2-carbonyl]-4-[3-(1-methylethylamino)-2-pyridinyl]piperazine] |  | 43 to 66 | < 10 | 
